Assay results: article PMC5773651, “Customised in vitro model to detect human metabolism-dependent idiosyncratic drug-induced liver injury” (Archives of Toxicology, 2017)
Where two headings read alike, the source gives them in different places. Marks after values point to notes of the source that are not given here. One block for each compound: values may come before it.

Columns and labels:
[1] = tested on: HepG2 cells; assay: Cell viability (PI), IC50, control HepG2 cells; type: cell-based; settings: Homo sapiens; control non-transduced HepG2; 24 h; unit inferred, tested range in µM; read-out: IC50 (cell viability), C
[2] = tested on: HepG2 cells transduced with AdCYP2E1; assay: Cell viability (PI), IC50, AdCYP2E1-HepG2; type: cell-based; settings: Homo sapiens, unit inferred, tested range in µM
Experimental: (§1) For subculturing purposes, cells were detached by treatment with 0.25% trypsin/0.02% EDTA at 37 °C. For the adenovirus infection studies, cells were seeded in 96-well plates (5000 cells/well) and adenovirus-containing medium was added 48 h later. After 24 h, cells were transferred to the adenovirus-free medium and cultured for an additional 24-h period prior to the incubations performed with the test chemicals. To optimise the expression of the functional enzymes in the adenovirus-transduced HepG2 (Ad-HepG2) cells, different doses (MOI, multiplicity of infection, defined as plaque formation units per cell) of each adenovirus were tested.
(§2) The drugs included in the study were chosen based on previous information about their hepatotoxicity. Information on the potential mechanisms implicated in the toxicity of each compound and the major enzymes involved in their metabolism is summarised in Table 1. HepG2 or Ad-HepG2 (48 h post-infection) cells were exposed for 24 h to eight concentrations of the tested compounds. Each experimental condition was repeated independently three times (with three wells measured each time). The stock solutions of compounds were prepared in DMSO and were conveniently diluted in the culture medium to obtain the desired final concentrations. The final DMSO concentration in the culture medium was 0.5% (v/v), and the control cultures were treated with the same amount of solvent.
(§3) Following treatments, cells were simultaneously loaded with several fluorescent dyes to measure multiple biomarkers of cell toxicity. […] Information about the probes is summarised in Supplementary Table S2.
(§4) After incubating with dyes, cells were imaged by the Scan^R system (Olympus, Germany). Dyes were excited, and their fluorescence was monitored at the excitation and emission wavelengths at appropriate filter settings. The collected images were analysed using the Scan^R analysis module, which allows the simultaneous quantification of subcellular structures that are stained by different fluorescent probes.

[3] = tested on: HepG2 cells transduced with AdCYP2E1; settings: human, 24 h
Experimental: as §1, §2, §3, §4

[4] = tested on: HepG2 cells transduced with AdGSTM1; settings: human, 24 h
Experimental: as §1, §2, §3, §4

[5] = tested on: HepG2 cells; settings: human, 24 h
Experimental: as §1, §2, §3, §4

[6] = tested on: HepG2 cells co-transduced with AdCYP2E1 and AdCYP1A2; assay: HCS hepatotoxicity assay (MEC, TR), AdCYP2E1 + AdCYP1A2 HepG2; type: cell-based, human; settings: 24 h; for MEC Apoptosis / MEC Calcium / MEC MMP / MEC Mitochondrial superoxide / MEC ROS: unit inferred, tested range in mM
Experimental: as §1, §2, §3, §4

[7] = tested on: HepG2 cells co-transduced with AdCYP2E1, CYP1A2 and AdGSTM1; assay: HCS hepatotoxicity assay (MEC, TR), AdCYP2E1 + AdCYP1A2 + AdGSTM1 HepG2; type: cell-based, human; settings: 24 h; for MEC Apoptosis / MEC Calcium / MEC MMP / MEC Mitochondrial superoxide / MEC ROS: unit inferred, tested range in mM
Experimental: as §1, §2, §3, §4

[8] = cited from earlier work; for Bioactivation / Enzyme: major enzyme(s) involved in the bioactivation (denoted as *) or detoxification of the drug: previous information; for Toxicity (mechanisms of toxicity): ref Ashrafian et al. [2007], Donato et al. [2009], Fromenty and Pessayre [1997], Rolo et al. [2000], Tolosa et al. [2012b]; for DILI category: ref Gustafsson et al. ([2014])
[9] = tested on: HepG2 cells co-transduced with AdCYP2E1 and AdGSTM1; assay: HCS hepatotoxicity assay (MEC, TR), AdCYP2E1 + AdGSTM1 HepG2; type: cell-based, human; settings: CYP2E1-10X + GSTM1, 24 h
Experimental: as §1, §2, §3, §4

[10] = tested on: HepG2 cells transduced with AdCYP2C9; assay: Cell viability (PI), IC50, AdCYP2C9-HepG2; type: cell-based; settings: Homo sapiens, unit inferred, tested range in µM
[11] = tested on: HepG2 cells transduced with AdCYP2B6; assay: Cell viability (PI), IC50, AdCYP2B6-HepG2; type: cell-based; settings: Homo sapiens, unit inferred, tested range in µM
Experimental: as §1, §2, §3, §4

[12] = tested on: HepG2 cells transduced with AdCYP2B6; assay: HCS hepatotoxicity assay (MEC, TR), AdCYP2B6-HepG2; type: cell-based, human; settings: 24 h, unit inferred, tested range in mM
Experimental: as §1
The drugs included in the study were chosen based on previous information about their hepatotoxicity. […] Each experimental condition was repeated independently three times (with three wells measured each time). […]
as §4

[13] = ref Atienzar et al. ([2014]), Garside et al. ([2014]), Tolosa et al. ([2012b]); cited from earlier work
[14] = tested on: Ad-HepG2 and HepG2 cells; type: cell-based, human
Text: Finally, we explored the toxicity of the amoxycillin/clavulanate combination, one of the most commonly implicated agents in severe idiosyncratic liver injury. Unlike other studied drugs, the hepatotoxicity of amoxycillin/clavulanate has not been related to CYP metabolism.

[15] = ADV CYP2E1 x1, 24 h, read-out: IC50 (cell viability), ADV dose x1
[16] = ADV CYP2E1 x4, 24 h, read-out: IC50 (cell viability), ADV dose x4
[17] = ADV CYP2E1 x10, 24 h, read-out: IC50 (cell viability), ADV dose x10
[18] = unit inferred, tested range in mM
[19] = unit not given, tested range in mM

- IC50 [1]: > 15000 µM
- IC50 [2, 15]: > 15000 µM
- IC50 [2, 16]: > 15000 µM
- IC50 [2, 17]: 10600 µM
- concentrations needed to significantly alter ROS generation and calcium levels [3]: 4000 to 6000 µM
- MEC Calcium [4]: 10
- MEC MMP [4]: 15
- MEC Mitochondrial superoxide [4]: 6
- MEC ROS [4]: 15
- TR [4]: 3.5
- MEC Calcium [5]: 6
- MEC MMP [5]: 15
- MEC Mitochondrial superoxide [5]: 4
- MEC ROS [5]: 10
- TR [5]: 3.5
Compound: CC(=O)Nc1ccc(O)cc1 [Acetaminophen]
- MEC Apoptosis [4]: 4 µM
- MEC Apoptosis [5]: 4 µM
- MEC Apoptosis ([6]; CYP2E1-1X + CYP1A2-1X): 1 mM
- MEC Calcium ([6]; CYP2E1-1X + CYP1A2-1X): 6 mM
- MEC MMP ([6]; CYP2E1-1X + CYP1A2-1X): 10 mM
- MEC Mitochondrial superoxide ([6]; CYP2E1-1X + CYP1A2-1X): 1 mM
- MEC ROS ([6]; CYP2E1-1X + CYP1A2-1X): 6 mM
- TR ([6]; CYP2E1-4X + CYP1A2-4X, TR = 100 x Cmax/lowest MEC): 27.8
- MEC Apoptosis ([6]; CYP2E1-4X + CYP1A2-4X): 0.5 mM
- MEC Calcium ([6]; CYP2E1-4X + CYP1A2-4X): 0.5 mM
- MEC MMP ([6]; CYP2E1-4X + CYP1A2-4X): 6 mM
- MEC Mitochondrial superoxide ([6]; CYP2E1-4X + CYP1A2-4X): 0.5 mM
- MEC ROS ([6]; CYP2E1-4X + CYP1A2-4X): 0.5 mM
- concentration that induced significant changes in the ROS generation and calcium levels ([6]; cells co-transduced with AdCYP2E1 and AdCYP1A2, intermediate doses of adenoviruses): 500 µM
- TR ([7]; CYP2E1-1X + CYP1A2-1X + GSTM1, TR = 100 x Cmax/lowest MEC): 3.5
- MEC Apoptosis ([7]; CYP2E1-1X + CYP1A2-1X + GSTM1): 4 mM
- MEC Calcium ([7]; CYP2E1-1X + CYP1A2-1X + GSTM1): 15 mM
- MEC MMP ([7]; CYP2E1-1X + CYP1A2-1X + GSTM1): 15 mM
- MEC Mitochondrial superoxide ([7]; CYP2E1-1X + CYP1A2-1X + GSTM1): 6 mM
- MEC ROS ([7]; CYP2E1-1X + CYP1A2-1X + GSTM1): 15 mM
- MEC Apoptosis ([7]; CYP2E1-4X + CYP1A2-4X + GSTM1): 1 mM
- MEC Calcium ([7]; CYP2E1-4X + CYP1A2-4X + GSTM1): 6 mM
- MEC MMP ([7]; CYP2E1-4X + CYP1A2-4X + GSTM1): 10 mM
- MEC Mitochondrial superoxide ([7]; CYP2E1-4X + CYP1A2-4X + GSTM1): 4 mM
- MEC ROS ([7]; CYP2E1-4X + CYP1A2-4X + GSTM1): 6 mM
- Bioactivation [8]: Yes
- Enzyme: major enzyme(s) involved in the bioactivation (denoted as *) or detoxification of the drug [8]: CYP2E1* (CYP1A2*, CYP3A4*) GST
- Toxicity (mechanisms of toxicity) [8]: OS, AP
- DILI category [8]: DILI reports

- IC50 [1]: 61500 µM
- IC50 [2, 15]: 52900 µM
- IC50 [2, 16]: 44500 µM
- IC50 [2, 17]: 46600 µM
- MEC MMP [3]: >50
- MEC Calcium [4]: >50
- MEC MMP [4]: >50
- MEC Mitochondrial superoxide [4]: >50
- MEC ROS [4]: >50
- TR [4]: 0.25
- MEC Calcium [5]: 30
- MEC MMP [5]: >50
- MEC Mitochondrial superoxide [5]: 30
- MEC ROS [5]: >50
- TR [5]: 0.25
Compound: NNC(=O)c1ccncc1 [Isoniazid]
- MEC Apoptosis [4]: 30 µM
- MEC Apoptosis [5]: 30 µM
- TR ([9]; TR = 100 x Cmax/lowest MEC): 0.38
- MEC Calcium [9, 18]: 20 mM
- MEC Mitochondrial superoxide [9, 18]: 30 mM
- MEC ROS [9, 18]: > 50 mM
- MEC Apoptosis [9, 19]: 30
- MEC MMP [9, 19]: >50
- Bioactivation [8]: Yes
- Enzyme: major enzyme(s) involved in the bioactivation (denoted as *) or detoxification of the drug [8]: CYP2E1*, GSTM1, NAT2
- Toxicity (mechanisms of toxicity) [8]: MI, OS, AP
- DILI category [8]: Severe

- IC50 [1]: 14800 µM
- IC50 ([10]; ADV CYP2C99 x1, 24 h, read-out: IC50 (cell viability), ADV dose x1): 14400 µM
- IC50 ([10]; ADV CYP2C99 x4, 24 h, read-out: IC50 (cell viability), ADV dose x4): 16000 µM
- IC50 ([10]; ADV CYP2C99 x10, 24 h, read-out: IC50 (cell viability), ADV dose x10): 10100 µM
- IC50 ([11]; ADV CYP2B6 x1, 24 h, read-out: IC50 (cell viability), ADV dose x1): 13300 µM
- IC50 ([11]; ADV CYP2B6 x4, 24 h, read-out: IC50 (cell viability), ADV dose x4): 8600 µM
- IC50 ([11]; ADV CYP2B6 x10, 24 h, read-out: IC50 (cell viability), ADV dose x10): 8700 µM
- MEC Lipids [5]: 6
Compound: CCCC(CCC)C(=O)O [Valproic acid]
- MEC ROS ([12]; CYP2B6-4X): 10 mM
- MEC ROS ([12]; CYP2B6-10X): 8 mM
- Cmax [13]: 166 µM
- Bioactivation [8]: Yes
- Enzyme: major enzyme(s) involved in the bioactivation (denoted as *) or detoxification of the drug [8]: CYP2B6*, CYP2C9* (CYP2E1*, CYP2A6*)
- Toxicity (mechanisms of toxicity) [8]: MI, OS, ST

- ROS production [14]: significant increase
Compound: Amoxicillin/clavulanate
